According to US12018093B2, “Hemiasterlin derivatives and antibody-drug conjugates including same” (priority 2017, dated 2024):
*1 amine or outer side, *2 acyl side, *3 side chain or, on linkers, in order; H or OH if unused. Where a SMILES comes first, the peptide text is derived from it. [ ]: non-standard residue; d: D form. NMeTrp(1,β,β-Me3) = CN[C@H](C(=O)O)C(C)(C)c1cn(C)c2ccccc12; X1 = C/C(=C\[C@H](C(C)C)N(C)[*:1])C(=O)[*:2]; Tle = CC(C)(C)[C@H](N)C(=O)O

Experiments:
[1] = biological target: porcine tubulin (Sus scrofa, UniProt P02550+P02554); experiment: Activity for inhibiting microtubule polymerization using porcine tubulins (2), microtubule polymerization rate; conditions: 60 minutes after assay initiation; relative to wells without compound; lower = stronger inhibition
[2] = system: Karpas-299 cells; experiment: Cellular toxicity test (1), CellTiter-Glo, Karpas-299; assay type: cell-based; conditions: Homo sapiens, 96 h, cultured 4 days, cell viability
Method: SU-DHL-1 cells (American Type Culture Collection, hereinafter, ATCC) and Karpas-299 cells (European Collection of Authenticated Cell Cultures, hereinafter, ECACC), which are human lymphoma cell lines, were cultured in RPMI 1640 (GIBCO) containing 10% fetal bovine serum (MP Biomedicals) (hereinafter, referred to as the “culture medium” in this test). SU-DHL-1 cells and Karpas-299 cells were prepared to be 2×10^6 cells/mL in the culture medium, and were added to a 96 well microplate for cell culturing in an amount of 50 μL for each well. Compounds of Examples or hemiasterlin 4 times diluted with the culture medium in 8 stages were added to the microplate in an amount of 50 μL for each well. To wells to which the test substance was not added, the culture medium was added in an amount of 50 μL for each well. These were cultured at 37 degree under 5% CO2 for 4 days. After culturing, the microplate was taken out from the incubator, and was left at rest at room temperature for 10 minutes. To each well, 50 μL of CellTiter-Glo Luminescent Cell Viability Assay (Promega) was added, and the resultant mixture was stirred. This mixture was incubated at a dark place for 20 minutes. Using a microplate luminometer, luminescence at each well was measured, thereby calculating the cell viability for each concentration of the test substance. From the cell viability, the IC50 value of the test substance was determined.
The IC50 value was calculated by the following formula: IC50(nM)=antilog(LOG10(a/b)×(e−d)/(c−d)+LOG10b) • a: concentration a of test substance • b: concentration b of test substance • c: cell viability upon adding test substance with concentration a • d: cell viability upon adding test substance with concentration b • e: intermediate value between maximum and minimum among cell viabilities upon • adding test substances with different concentrations (a and b are concentrations crossing the cell viability e, and a>b is indicated).
The cell viability at each concentration was calculated by the following formula: Cell Viability (%)=a′/b′×100 • a′: mean value of luminescence amount of wells to which test substance was added (n=6) • b′: mean value of luminescence amount of wells to which test substance was not added (n=6) • (n represents the number of evaluations performed per test substance concentration).

[3] = in vitro; conditions: PAMPA, pH 7.4
Method: By the parallel artificial membrane permeability assay (PAMPA), the membrane permeability of compounds of Examples was examined as follows: To the donor plate, System solution (pION inc.) and GIT Lipid-0 (pION inc.) were added in an amount of 200 μL and 4 μL for each well, respectively. To the acceptor plate, Acceptor Sink Buffer (pION inc.) was added in an amount of 200 μL. Both plates were superposed and incubated at 37° C. for 4 hours, and then, UVs in the solutions on the side of acceptor and on the side of donor were measured with an UV plate reader (190 to 500 nm). Compounds with poor UV absorption were measured by LC-MS. The permeability coefficient Pe (10^−6 cm/sec) of the drug was calculated by the following formula.

Sequence of porcine tubulin (P02554 whole entry): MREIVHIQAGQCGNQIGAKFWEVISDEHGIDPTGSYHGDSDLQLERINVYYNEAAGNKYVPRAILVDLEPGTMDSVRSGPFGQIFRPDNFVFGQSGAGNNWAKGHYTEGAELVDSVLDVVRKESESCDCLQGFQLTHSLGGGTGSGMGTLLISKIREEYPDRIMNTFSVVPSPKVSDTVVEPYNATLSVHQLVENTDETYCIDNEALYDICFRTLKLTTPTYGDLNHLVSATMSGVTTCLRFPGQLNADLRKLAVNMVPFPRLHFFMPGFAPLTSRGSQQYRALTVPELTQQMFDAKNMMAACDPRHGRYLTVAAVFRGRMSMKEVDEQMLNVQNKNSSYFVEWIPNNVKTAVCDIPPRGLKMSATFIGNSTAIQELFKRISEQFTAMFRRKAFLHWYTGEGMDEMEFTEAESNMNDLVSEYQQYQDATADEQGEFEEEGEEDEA
Sequence of porcine tubulin (P02550 whole entry): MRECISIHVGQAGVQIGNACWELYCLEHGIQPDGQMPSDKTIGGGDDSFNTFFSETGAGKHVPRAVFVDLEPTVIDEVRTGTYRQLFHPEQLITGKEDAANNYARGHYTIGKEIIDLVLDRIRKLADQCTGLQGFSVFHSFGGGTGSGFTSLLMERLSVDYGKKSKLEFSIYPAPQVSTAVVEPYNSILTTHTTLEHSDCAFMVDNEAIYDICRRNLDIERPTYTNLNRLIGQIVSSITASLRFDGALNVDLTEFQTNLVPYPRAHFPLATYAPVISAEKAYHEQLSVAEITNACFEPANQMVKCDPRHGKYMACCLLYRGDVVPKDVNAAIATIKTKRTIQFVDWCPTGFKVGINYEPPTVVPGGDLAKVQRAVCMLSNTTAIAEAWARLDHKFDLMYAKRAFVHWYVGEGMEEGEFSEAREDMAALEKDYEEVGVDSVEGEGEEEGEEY

Compound | Microtubule polymerization rate (%) [1] [%] | IC50 [2] [nM] | Papp [3] [×10⁻⁶ cm/s] | Papp at 4 h [3] [×10⁻⁶ cm/s]
CCOC(=O)[C@H](CCC(=O)O)NC(=O)/C(C)=C/[C@H](C(C)C)N(C)C(=O)[C@@H](NC(=O)[C@@H](NC)C(C)(C)c1cn(C)c2ccccc12)C(C)(C)C [Example 13] | 21 | – | – | –
CN[C@H](C(=O)N[C@H](C(=O)N(C)[C@H](/C=C(\C)C(=O)N[C@@H](CCC(=O)O)C(=O)O)C(C)C)C(C)(C)C)C(C)(C)c1cn(C)c2ccccc12 [Example 6] | – | 34 | < 0.1 | –
CN[C@H](C(=O)N[C@H](C(=O)N(C)[C@H](/C=C(\C)C(=O)N[C@H](CCC(=O)O)C(=O)O)C(C)C)C(C)(C)C)C(C)(C)c1ccc2ccccc2c1 [Example 64] | – | 30 | – | –
CN[C@H](C(=O)N[C@H](C(=O)N(C)[C@H](/C=C(\C)C(=O)N[C@H](CCC(=O)O)C(=O)O)C(C)C)C(C)(C)C)C(C)(C)c1ccc(C(=O)O)cc1 [Example 71] | 4 | 701 | < 0.1 | –
CN[C@H](C(=O)N[C@H](C(=O)N(C)[C@H](/C=C(\C)C(=O)N[C@H](CCC(=O)O)C(=O)O)C(C)C)C(C)(C)C)C(C)(C)c1ccc(C(=O)OC(C)(C)C)cc1 [Example 66] | 9 | > 1000 | < 0.1 | –
CN[C@H](C(=O)N[C@H](C(=O)N(C)[C@H](/C=C(\C)C(=O)N[C@H](CCC(=O)O)C(=O)O)C(C)C)C(C)(C)C)C(C)(C)c1cccc(C)c1 [Example 68] | 4 | 26.5 | < 0.1 | –
C/C(=C\[C@H](C(C)C)N(C)C(=O)[C@@H](NC(=O)[C@H]1CCCCN1C(C)C)C(C)(C)C)C(=O)N[C@H](CCC(=O)O)C(=O)O [Example 57] | 5 | > 1000 | < 0.1 | –
CN[C@H](C(=O)N[C@H](C(=O)N(C)[C@H](/C=C(\C)C(=O)N[C@H](CCC(=O)O)C(=O)O)C(C)C)C(C)(C)C)C(C)(C)c1cccc(F)c1 [Example 56] | 7 | 275 | 0.7 | –
CN[C@H](C(=O)N[C@H](C(=O)N(C)[C@H](/C=C(\C)C(=O)N[C@@H](CCC(=O)N[C@@H](CCC(=O)O)C(=O)O)C(=O)N[C@@H](CCC(=O)O)C(=O)O)C(C)C)C(C)(C)C)C(C)(C)c1cn(C)c2ccccc12 [Example 47] (H-[NMeTrp(1,β,β-Me3)][Tle][X1]E(Glu)E-OH) | 3 | 773 | < 0.1 | –
CN[C@H](C(=O)N[C@H](C(=O)N(C)[C@H](/C=C(\C)C(=O)N[C@@H](CS(=O)(=O)O)C(=O)O)C(C)C)C(C)(C)C)C(C)(C)c1ccccc1 [Example 53] | – | 122 | < 0.1 | –
C/C(=C\[C@H](C(C)C)N(C)C(=O)[C@@H](NC(=O)[C@@H](N)C(C)(C)c1cn(C)c2ccccc12)C(C)(C)C)C(=O)N[C@H](CCC(=O)O)C(=O)O [Example 2, β,β,1-Trimethyl-L-tryptophyl-N-[(3S,4E)-6-{[(1R)-1,3-dicarboxypropyl]amino}-2,5-dimethyl-6-oxohex-4-en-3-yl]-N,3-dimethyl-L-valinamide] | 4 | > 125 | 0.2 | –
CNC(C(=O)N[C@H](C(=O)N(C)[C@H](/C=C(\C)C(=O)N[C@H](CCC(=O)O)C(=O)O)C(C)C)C(C)(C)C)C(C)(C)c1ccc(C(=O)O)cc1 (stereo partly shown) [Example 70] | – | 721 | 0.9 | –
CN[C@H](C(=O)N[C@H](C(=O)N(C)[C@H](/C=C(\C)C(=O)N[C@@H](CC(=O)O)C(=O)N[C@@H](CC(=O)O)C(=O)N[C@@H](CC(=O)O)C(=O)N[C@@H](CC(=O)O)C(=O)N[C@@H](CC(=O)O)C(=O)O)C(C)C)C(C)(C)C)C(C)(C)c1cn(C)c2ccccc12 [Example 3, N-{(2E,4S)-2,5-Dimethyl-4-[methyl(N,β,β,1-tetramethyl-L-tryptophyl-3-methyl-L-valyl)amino]hex-2-enoyl}-L-α-aspartyl-L-t-aspartyl-L-α-aspartyl-L-α-aspartyl-L-α-aspartic acid] (H-[NMeTrp(1,β,β-Me3)][Tle][X1]DDDDD-OH) | 3 | > 5000 | – | < 0.1
CN[C@H](C(=O)N[C@H](C(=O)N(C)[C@H](/C=C(\C)C(=O)N[C@H](CCC(=O)O)C(=O)O)C(C)C)C(C)(C)C)C(C)(C)c1cccc(-c2ccccc2)c1 [Example 67] | 42 | 149 | < 0.1 | –
CN[C@H](C(=O)N[C@H](C(=O)N(C)[C@H](/C=C(\C)C(=O)N[C@H](CCCCN)C(=O)O)C(C)C)C(C)(C)C)C(C)(C)c1cn(C)c2ccccc12 [Example 5] | – | 87.2 | – | –
CN[C@H](C(=O)N[C@H](C(=O)N(C)[C@H](/C=C(\C)C(=O)N[C@H](CCC(=O)O)C(=O)O)C(C)C)C(C)(C)C)C(C)(C)c1cccc(C(F)(F)F)c1 [Example 55] | 16 | 34.6 | < 0.1 | –
CNC(C(=O)N[C@H](C(=O)N(C)[C@H](/C=C(\C)C(=O)N[C@H](CCC(=O)O)C(=O)O)C(C)C)C(C)(C)C)C(C)(C)c1ccc(O)cc1 (stereo partly shown) [Example 59] | 2 | 412 | 0.5 | –
CN[C@H](C(=O)N[C@H](C(=O)N(C)[C@H](/C=C(\C)C(=O)N[C@H](CCC(=O)N[C@@H](CCCCN)C(=O)O)C(=O)O)C(C)C)C(C)(C)C)C(C)(C)c1cn(C)c2ccc(F)cc12 [Example 52] | – | 230 | < 0.1 | –
CN[C@H](C(=O)N[C@H](C(=O)N(C)[C@H](/C=C(\C)C(=O)N[C@H](CCC(=O)O)C(=O)O)C(C)C)C(C)(C)C)C(C)(C)c1cc(C)cc(C)c1 [Example 62] | 6 | – | – | –
CN[C@H](C(=O)N[C@H](C(=O)N(C)[C@H](/C=C(\C)C(=O)N[C@@H](COP(=O)(O)O)C(=O)O)C(C)C)C(C)(C)C)C(C)(C)c1ccccc1 [Example 54] | – | 22.2 | – | –
CN[C@H](C(=O)N[C@H](C(=O)N(C)[C@H](/C=C(\C)C(=O)N[C@@H](CCC(=O)OC)C(=O)OC)C(C)C)C(C)(C)C)C(C)(C)c1cn(C)c2ccccc12 [Example 72] | 1 | 106 | < 0.1 | –
CCOC(=O)CC[C@@H](NC(=O)/C(C)=C/[C@H](C(C)C)N(C)C(=O)[C@@H](NC(=O)[C@@H](N)C(C)(C)c1cn(C)c2ccccc12)C(C)(C)C)C(=O)OCC [Example 1, (2R)-2-{[(2E,4S)-4-{[(2S)-2-{[(2S)-2-Amino-3-methyl-3-(1-methyl-1H-indol-3-yl)butanoyl]amino}-3,3-dimethylbutanoyl](methyl)amino}-2,5-dimethylhex-2-enoyl]amino}pentane diethyl diester] | – | 93.9 | – | –
CN[C@H](C(=O)N[C@H](C(=O)N(C)[C@H](/C=C(\C)C(=O)N[C@H](CCC(=O)O)C(=O)O)C(C)C)C(C)(C)C)C(C)(C)c1cccc(Br)c1 [Example 69] | 5 | 97.1 | < 0.1 | –
CN[C@H](C(=O)N[C@H](C(=O)N(C)[C@H](/C=C(\C)C(=O)N[C@H](CCC(=O)O)C(=O)O)C(C)C)C(C)(C)C)C(C)(C)c1cccc(C#N)c1 [Example 60] | 6 | 406 | < 0.1 | –
CN[C@H](C(=O)N[C@H](C(=O)N(C)[C@H](/C=C(\C)C(=O)N[C@H](CCC(=O)O)C(=O)O)C(C)C)C(C)(C)C)C(C)(C)C1CCCCC1 [Example 58] | 5 | > 1000 | 9 | –
CN[C@@H](C(=O)N[C@H](C(=O)N(C)[C@H](/C=C(\C)C(=O)N[C@H](CCC(=O)O)C(=O)O)C(C)C)C(C)(C)C)C(C)(C)c1cccc(Br)c1 [Example 65] | – | > 1000 | < 0.1 | –
